Earlier results, collected in the PKSmart pharmacokinetics tables (Seal et al. 2025).

Assay: Lombardo, Berellini, Obach 2018, Drug Metab Dispos 46:1466, doi 10.1124/dmd.118.082966
Conditions: human; for MRT / Vd / clearance / half-life: in vivo, iv; for fraction unbound: plasma

SMILES | MRT [h] | Vd [L/kg] | clearance [mL/min/kg] | half-life [h] | fraction unbound
O=C(O)CCCCN(CCc1ccccc1OCc1ccc(CCc2ccccc2)cc1)Cc1ccc(C(=O)O)cc1 | 0.44 | 0.24 | 9 | 0.25 | 
COc1cccc(OCCCN)c1-c1cc(Nc2cnc(C#N)cn2)n[nH]1 | 11.2 | 22.8 | 34 | 12.5 | 
C[C@]12CC[C@H]3[C@@H](CC=C4CC(=O)CC[C@@]43C)[C@@H]1CC[C@@H]2O | 0.25 | 0.35 | 24.5 | 0.17 | 0.057
COC(=O)C[C@@](O)(CCCC(C)(C)O)C(=O)O[C@@H]1C(OC)=C[C@]23CCCN2CCc2cc4c(cc2[C@H]13)OCO4 | 10.2 | 1.8 | 2.96 | 9.8 | 
CC(=O)C[C@H](c1ccc([N+](=O)[O-])cc1)c1c(O)c2ccccc2oc1=O | 3.12 | 0.24 | 1.28 | 7.22 | 0.02
CO[C@@]1(NC(=O)C(C(=O)O)c2ccsc2)C(=O)N2C(C(=O)O)C(C)(C)S[C@@H]21 (stereo partly drawn) | 5.2 | 0.11 | 0.34 | 4.1 | 0.21
COCCn1c2c([n+](Cc3cnccn3)c1C)C(=O)c1ccccc1C2=O | 34.5 | 23.7 | 11.3 | 24.8 | 
CC#CCn1c(N2CCC[C@@H](N)C2)nc2c1c(=O)n(Cc1nc(C)c3ccccc3n1)c(=O)n2C | 140 | 16 | 1.9 | 129 | 
Cc1ccc(C(CN)CC(=O)O)cc1 (stereo not drawn) | 6.36 | 0.65 | 1.7 | 5.24 | 0.69
CN1CC[C@]23CCCC[C@H]2[C@H]1Cc1ccc(O)cc13 | 12.2 | 11.5 | 15.7 | 13.5 | 0.6
CC(C)(C)NC(=O)C1CC[C@H]2[C@@H]3C=CC4=CC(C(=O)O)CC[C@]4(C)[C@H]3CC[C@]12C (stereo partly drawn) | 27 | 0.54 | 0.33 | 27 | 
O=C(O)CCCSCCN1C(=O)CC[C@@H]1/C=C/[C@@H](O)Cc1ccc(F)cc1 | 0.51 | 0.48 | 15.8 | 0.38 | 
CCN(CC)CCCC(C)Nc1c2ccc(Cl)cc2nc2ccc(OC)cc12 (stereo not drawn) | 150 | 45 | 5.1 | 120 | 
Oc1ccc(C2=Cc3ccc(O)cc3OC2)cc1 | 0.44 | 1.55 | 59.1 | 0.67 | 
CN(C)C(=O)Oc1ccc[n+](C)c1 | 1.8 | 1.1 | 9.6 | 1.5 | 
CCCC(NC(C)C(=O)N1C(C(=O)O)C[C@@H]2CCCC[C@@H]21)C(=O)O (stereo partly drawn) | 7.6 |  | 1.7 | 29 | 0.16
CCC(C)n1ncn(-c2ccc(N3CCN(c4ccc(OCC5COC(Cn6cncn6)(c6ccc(Cl)cc6Cl)O5)cc4)CC3)cc2)c1=O (stereo not drawn) |  | 7.4 | 5.1 | 25 | 
Cc1c(Cl)cccc1Nc1ccccc1C(=O)O | 1.13 | 0.16 | 2.37 | 2.15 | 0.003
CN1CC(C(=O)N[C@]2(C)O[C@@]3(O)[C@@H]4CCCN4C(=O)C(Cc4ccccc4)N3C2=O)C=C2c3cccc4[nH]cc(c34)C[C@H]21 (stereo partly drawn) | 4 | 3.6 | 15 | 2.1 | 0.02
Cn1nnc(-c2ccc(-c3ccc(N4C[C@H](CO)OC4=O)cc3F)cn2)n1 | 12.6 | 0.91 | 1.19 | 10.2 | 0.11
CC(O)Cn1cnc2c1c(=O)n(C)c(=O)n2C (stereo not drawn) | 8.39 | 0.59 | 1.17 | 7.8 | 
COc1cc2c(cc1OC)[C@H]1C[C@@H](OC(=O)C(N)C(C)C)[C@H](CC(C)C)CN1CC2 (stereo partly drawn) | 12.8 | 1.31 | 1.71 | 18 | 0.01
CN(c1nccc(=O)[nH]1)C1CCN(c2nc3ccccc3n2Cc2ccc(F)cc2)CC1 | 6 | 0.38 | 1.03 | 9.6 | 
COCCCC/C(=N\OCCN)c1ccc(C(F)(F)F)cc1 | 12.3 | 23.5 | 31.9 | 12.5 | 0.2

SMILES | MRT [h] | Vd [L/kg] | clearance [mL/min/kg] | half-life [h] | fraction unbound
O=c1[nH]c2ccccc2n1CCCN1CCC(n2c(=O)[nH]c3cc(Cl)ccc32)CC1 | 6 | 3.4 | 9.5 |  | 
CC[N+](CC)(CC)CCOc1cccc(OCC[N+](CC)(CC)CC)c1OCC[N+](CC)(CC)CC | 2.98 | 0.27 | 1.51 | 2.52 | 
Cn1c(=O)c2c(ncn2CC2OCCO2)n(C)c1=O | 2.5 | 1.03 | 6.83 | 1.66 | 
Cc1cccc(C)c1NC(=O)C1CCCCN1C (stereo not drawn) | 2.5 | 0.95 | 6.8 | 2 | 0.3
CN1CCN(C(c2ccccc2)c2ccccc2)CC1 | 15.5 | 16.5 | 14.5 | 13.5 | 
CN(CCCCCCN(C)C(=O)Oc1ccc[n+](C)c1)C(=O)Oc1ccc[n+](C)c1 | 82.4 | 1 | 0.2 | 59.8 | 
COc1nc(C(Cl)(Cl)Cl)c(Cl)c(OC)c1Cl | 5.1 | 9.1 | 29.9 | 3.8 | 
CN(C)CCCOc1nn(Cc2ccccc2)c2ccccc12 | 11.4 | 1.53 | 2.28 | 8.1 | 0.8
C[C@]12CC=C3C4=C(CCC3[C@@H]1CC[C@@]2(O)CC#N)CC(=O)CC4 (stereo partly drawn) | 8.52 | 0.6 | 1.29 | 11 | 0.1
NC(=O)c1cccc(N)c1 | 4 | 1.9 | 7.9 | 5 | 
CCC1=C[C@@H]2CN(C1)Cc1c([nH]c3ccccc13)[C@@](C(=O)OC)(c1cc3c(cc1OC)N(C)[C@H]1[C@@](O)(C(=O)OC)[C@H](OC(C)=O)[C@]4(CC)C=CCN5CC[C@]31[C@@H]54)C2 | 18 | 23 | 20 | 26 | 0.87
CC(=O)OCC1=C(C(=O)O)N2C(=O)C(NC(=O)Cc3cccs3)[C@H]2SC1 (stereo partly drawn) | 0.65 | 0.07 | 1.8 | 0.95 | 0.22
CC(C)(O)[C@@H]1CC[C@](C)([C@H]2[C@@H](O)C[C@@]3(C)[C@@H]4C[C@H](O[C@@H]5O[C@H](CO)[C@@H](O)[C@H](O)[C@H]5O)[C@H]5C(C)(C)[C@@H](O[C@@H]6OC[C@@H](O)[C@H](O)[C@H]6O)CC[C@@]56C[C@@]46CC[C@]23C)O1 | 2.78 | 0.12 | 0.74 | 2.65 | 0.14
CNC(=O)C(c1ccccc1)N1CCc2cc(OC)c(OC)cc2[C@@H]1CCc1ccc(C(F)(F)F)cc1 (stereo partly drawn) | 15.9 | 9.75 | 10.2 | 34.3 | 
CCN[C@@H]1C[C@H](N)[C@@H](O[C@H]2OC(CN)=CC[C@H]2N)[C@H](O)[C@H]1O[C@H]1OC[C@](C)(O)[C@H](NC)[C@H]1O | 2.2 | 0.073 | 0.55 | 3.2 | 1
CN(CCC(=O)/C=C/c1ccc(O)cc1)CCc1ccc2c(c1)OCO2 | 0.05 | 2.13 | 713 | 0.1 | 
CCOCCO[C@@H]1CC[C@@H](C[C@@H](C)[C@@H]2CC(=O)C(C)=CC(C)[C@@H](O)C(OC)C(=O)C(C)C[C@H](C)/C=C/C=C/C=C(\C)[C@@H](OC)C[C@@H]3CC[C@@H](C)[C@@](O)(O3)C(=O)C(=O)N3CCCCC3C(=O)O2)C[C@H]1OC (stereo partly drawn) | 60.9 | 44.5 | 12.2 | 93.9 | 
CN(C)Cc1nnc2n1-c1ccc(Cl)cc1C(c1ccccc1)=NC2 | 2.6 | 0.98 | 6.2 | 2.1 | 
COC[C@@H](O)CN(C(C)=O)c1c(I)c(C(=O)NC[C@H](O)CO)c(I)c(C(=O)NC[C@H](O)CO)c1I | 2.64 | 0.2 | 1.27 | 2.04 | 1
CCCC(C)(COC(N)=O)COC(N)=O | 19 | 0.7 | 0.6 | 14 | 1
O=C(O)c1cc(N=Nc2ccc(O)c(C(=O)O)c2)ccc1O | 0.97 | 0.07 | 1.2 | 0.9 | 0.01
CN1CCN(CC(=O)N2c3ccccc3C(=O)Nc3cccnc32)CC1 | 10.3 | 1.71 | 2.77 | 11.1 | 
Cc1cccc(C)c1OCC(C)N (stereo not drawn) | 12 | 5.9 | 8.3 | 9.9 | 0.36
CCc1cc2c(cc1N1CCC(N3CCOCC3)CC1)C(C)(C)c1[nH]c3cc(C#N)ccc3c1C2=O | 13.8 | 6.35 | 7.69 | 11.7 | 0.003

SMILES | MRT [h] | Vd [L/kg] | clearance [mL/min/kg] | half-life [h] | fraction unbound
CC(C)CC1C(=O)N2CCC[C@H]2[C@]2(O)O[C@@](C)(NC(=O)C3C[C@@H]4c5cccc6[nH]cc(c56)C[C@H]4N(C)C3)C(=O)N12 (stereo partly drawn) | 5.01 | 4.02 | 12.8 | 8.84 | 
O=C1NCC2(CCN(CCc3ccccc3)CC2)O1 | 19 | 3 | 2.6 | 14 | 
CN[C@@H]1[C@H](O)[C@H](NC)[C@H]2O[C@@]3(O)C(=O)C[C@@H](C)O[C@H]3O[C@@H]2[C@H]1O | 2.2 | 0.13 | 0.99 | 1.8 | 
CCCCCCCCCC=CCCC(=O)N=CC(=O)N[C@@H]1[C@@H](O)[C@@H](O)[C@@H](Nc2[nH]cnc3ncnc2-3)O[C@H]1[C@@H](O)CO | 1.1 | 0.17 | 2.7 | 1.3 | 
CCCc1c2oc(C(=O)O)cc(=O)c2cc2c(=O)cc(C(=O)O)n(CC)c12 | 0.7 | 0.43 | 10.2 | 0.9 | 0.11
CCOC(=O)[C@]1(c2ccccc2)CCC=C[C@H]1N(C)C | 4.2 | 4 | 16 | 5 | 0.21
C[N+](C)(O)CCCN1c2ccccc2CCc2ccccc21 | 2.6 | 1.9 | 12 | 1.8 | 
O=C(O)Cn1c(=O)c(=O)[nH]c2cc([N+](=O)[O-])c(-n3ccnc3)cc21 | 0.6 | 0.19 | 5.3 | 0.78 | 
NS(=O)(=O)c1ccc(S(=O)(=O)Nc2cccc3c(Cl)c[nH]c23)cc1 | 16.9 | 0.68 | 0.72 | 20.3 | 0.001
CC(C)(C)NC[C@@H](O)COc1cccc2c1CCC(=O)N2 |  |  | 10.1 | 4.7 | 
CN1c2ccccc2[C@@H](NCCCCCCC(=O)O)c2ccc(Cl)cc2S1(=O)=O | 1.9 | 0.3 | 2.8 | 1.4 | 
CC(C)[N+]1(C)[C@@H]2CC[C@H]1CC(OC(=O)C(CO)c1ccccc1)C2 (stereo partly drawn) | 2.7 |  |  |  | 
CC(C)[N@+]1(C)[C@H]2CC[C@H]1C[C@H](OC(=O)C(c1ccccc1)C1CCCC1)C2 (stereo partly drawn) | 2.48 | 1.25 | 8.41 | 3.3 | 
C=C(CC)C(=O)c1ccc(OCC(=O)O)c(Cl)c1Cl | 0.5 | 0.26 | 8.7 | 0.5 | 
C[N+]1(C)[C@@H]2CC(OC(=O)C(O)(c3cccs3)c3cccs3)C[C@H]1[C@@H]1O[C@@H]12 (stereo partly drawn) | 42.3 | 32 |  |  | 0.28
Cc1nc(=O)c(C#N)c(NCc2cccnc2)[nH]1 | 1.1 | 0.39 | 5.8 | 0.95 | 0.05
O=c1ccc2ncc(=O)n3c2n1C[C@H]3CN1CCC(NCc2cc3c(cn2)OCCC3)CC1 | 4.86 | 2.7 | 9.23 | 12.6 | 
CC(C)[C@@H](CC[C@@H](C)[C@H]1CC[C@H]2[C@@H]3[C@H](O)C[C@H]4C[C@@H](NCCCNCCCCN)CC[C@]4(C)[C@H]3CC[C@]12C)OS(=O)(=O)O | 3.2 | 0.23 | 1.2 | 9.5 | 
CC(=O)NC(CS)C(=O)O (stereo not drawn) | 3 | 0.55 | 3.1 | 5.5 | 0.17
Nc1nc2[nH]cc(CCc3ccc(C(=O)NC(CCC(=O)O)C(=O)O)cc3)c2c(=O)[nH]1 (stereo not drawn) | 1.92 | 0.15 | 1.3 | 1.85 | 
N[C@@H]1CN(c2c(F)cc3c(=O)c(C(=O)O)cn([C@@H]4C[C@@H]4F)c3c2Cl)CC12CC2 | 6.7 | 1.5 | 3.7 | 6.6 | 
COc1cccc2c1C(=O)c1c(O)c3c(c(O)c1C2=O)C[C@@](O)(C(=O)CO)C[C@@H]3O[C@H]1C[C@H](N)[C@H](OCc2ccccc2)[C@H](C)O1 | 43.2 | 48 | 18.5 | 34.6 | 
COC(=O)N(C)c1c(N)nc(-c2nn(Cc3ccccc3F)c3ncccc23)nc1N | 10 | 0.44 | 0.74 | 9.1 | 
